Data published in patent US9132140B2, “Boronic acid derivatives and therapeutic uses thereof” (Rempex Pharmaceuticals, Inc., priority 2013, dated 2015).
Read-outs that look alike come from different tables or passages of the source.

Assays:
[1] = test system: EC1064 (NDM-1, CMY-6, CTX-M-15); format: cell-based, Escherichia coli; conditions: EC1064; alone
Source text: (§1) Several strains simultaneously expressing both class A and class B carbapenemases, which were constructed using conjugation, were also included in the panel.

[2] = test system: EC1061 (NDM-1, CMY-6); format: cell-based, Escherichia coli; conditions: EC1061; alone
Source text: as §1

[3] = test system: EC1065 (IMP-1 CMY-2); format: cell-based, Escherichia coli; conditions: EC1065; alone
Source text: as §1

[4] = test system: EC1068 (VIM-1); format: cell-based, Escherichia coli; conditions: EC1068; alone
Source text: as §1

[5] = test system: EA1019 (SHV-5, VIM-1); format: cell-based, Enterobacter aerogenes; conditions: EA1019; alone
Source text: as §1

[6] = test system: ECLM1016 (NDM, KPC); format: cell-based, Enterobacter cloacae; conditions: ECLM1016; alone
Source text: as §1

[7] = test system: ECL1082 (VIM-1); format: cell-based, Enterobacter cloacae; conditions: ECL1082; alone
Source text: as §1

[8] = test system: ECL1026 (KPC); format: cell-based, Enterobacter cloacae; conditions: ECL1026; alone
Source text: as §1

[9] = test system: ECL1057 (NDM-1, TEM-1, CTX-M-15); format: cell-based, Enterobacter cloacae; conditions: ECL1057; alone
Source text: as §1

[10] = test system: ECL1045 (VIM-1); format: cell-based, Enterobacter cloacae; conditions: ECL1045; alone
Source text: as §1

[11] = test system: ECLM1018 (VIM, KPC); format: cell-based, Enterobacter cloacae; conditions: ECLM1018; alone
Source text: as §1

[12] = test system: ECLM1013 (NDM, KPC); format: cell-based, Enterobacter cloacae; conditions: ECLM1013; alone
Source text: as §1

[13] = test system: ECLM1014 (NDM, KPC); format: cell-based, Enterobacter cloacae; conditions: ECLM1014; alone
Source text: as §1

[14] = test system: ECL1055 (KPC); format: cell-based, Enterobacter cloacae; conditions: ECL1055; alone
Source text: as §1

[15] = test system: ECLM1019 (VIM, KPC); format: cell-based, Enterobacter cloacae; conditions: ECLM1019; alone
Source text: as §1

[16] = test system: ECLM1015 (NDM, KPC); format: cell-based, Enterobacter cloacae; conditions: ECLM1015; alone
Source text: as §1

[17] = test system: ECLM1017 (VIM, KPC); format: cell-based, Enterobacter cloacae; conditions: ECLM1017; alone
Source text: as §1

[18] = test system: ECL1036 (KPC); format: cell-based, Enterobacter cloacae; conditions: ECL1036; alone
Source text: as §1

[19] = test system: KPM1097 (NDM, KPC); format: cell-based, Klebsiella pneumoniae; conditions: KPM1097; alone
Source text: as §1

[20] = test system: KP1054 (VIM-1, SHV-11); format: cell-based, Klebsiella pneumoniae; conditions: KP1054; alone
Source text: as §1

[21] = test system: KP1070 (KPC TEM SHV); format: cell-based, Klebsiella pneumoniae; conditions: KP1070; alone
Source text: as §1

[22] = test system: KP1014 (Vim-1, TEM, SHV); format: cell-based, Klebsiella pneumoniae; conditions: KP1014; alone
Source text: as §1

[23] = test system: KP1098 (IMP-26 TEM SHV); format: cell-based, Klebsiella pneumoniae; conditions: KP1098; alone
Source text: as §1

[24] = test system: KPM1122 (NDM, VIM); format: cell-based, Klebsiella pneumoniae; conditions: KPM1122; alone
Source text: as §1

[25] = test system: KP1081 (NDM-1, TEM-1, SHV-11, CMY-6, CTX-M-15); format: cell-based, Klebsiella pneumoniae; conditions: KP1081; alone
Source text: as §1

[26] = test system: KP1065 (VIM-1, SHV-11); format: cell-based, Klebsiella pneumoniae; conditions: KP1065; alone
Source text: as §1

[27] = test system: KP1097 (IMP-1 SHV); format: cell-based, Klebsiella pneumoniae; conditions: KP1097; alone
Source text: as §1

[28] = test system: KPM1107 (NDM, KPC); format: cell-based, Klebsiella pneumoniae; conditions: KPM1107; alone
Source text: as §1

[29] = test system: KP1059 (VIM-1, SHV-11); format: cell-based, Klebsiella pneumoniae; conditions: KP1059; alone
Source text: as §1

[30] = test system: KPM1099 (NDM, KPC); format: cell-based, Klebsiella pneumoniae; conditions: KPM1099; alone
Source text: as §1

[31] = test system: KPM1347 (NDM-1 SHV CTX-M-15); format: cell-based, Klebsiella pneumoniae; conditions: KPM1347; alone
Source text: as §1

[32] = test system: KPM1344 (VIM-1); format: cell-based, Klebsiella pneumoniae; conditions: KPM1344; alone
Source text: as §1

[33] = test system: KP1061 (KPC TEM SHV); format: cell-based, Klebsiella pneumoniae; conditions: KP1061; alone
Source text: as §1

[34] = test system: KPM1109 (NDM, KPC); format: cell-based, Klebsiella pneumoniae; conditions: KPM1109; alone
Source text: as §1

[35] = test system: KPM1110 (NDM, KPC); format: cell-based, Klebsiella pneumoniae; conditions: KPM1110; alone
Source text: as §1

[36] = test system: KP1084 (KPC-3, SHV-11, TEM-1); format: cell-based, Klebsiella pneumoniae; conditions: KP1084; alone
Source text: as §1

[37] = test system: KPM1123 (KPC-2 TEM SHV); format: cell-based, Klebsiella pneumoniae; conditions: KPM1123; alone
Source text: as §1

[38] = test system: KPM1111 (NDM, KPC); format: cell-based, Klebsiella pneumoniae; conditions: KPM1111; alone
Source text: as §1

[39] = test system: KP1064 (KPC TEM SHV); format: cell-based, Klebsiella pneumoniae; conditions: KP1064; alone
Source text: as §1

[40] = test system: KPM1345 (VIM-1 SHV); format: cell-based, Klebsiella pneumoniae; conditions: KPM1345; alone
Source text: as §1

[41] = test system: KPM1346 (NDM-1 TEM SHV CTX-M-15 CMY); format: cell-based, Klebsiella pneumoniae; conditions: KPM1346; alone
Source text: as §1

[42] = test system: KP1004 (KPC TEM SHV); format: cell-based, Klebsiella pneumoniae; conditions: KP1004; alone
Source text: as §1

[43] = test system: KPM1108 (NDM, KPC); format: cell-based, Klebsiella pneumoniae; conditions: KPM1108; alone
Source text: as §1

[44] = test system: KP1081 (NDM-1, TEM-1, SHV-11, CMY-6, CTX-M-15); format: cell-based, Klebsiella pneumoniae; conditions: KP1081; alone; remark: listed apart in the source
Source text: (§2) The results are present in Table 6.
(§3) The results are present in Table 7.

[45] = test system: KP1087 (KPC-2, CTX-M-15, SHV-11, TEM-1); format: cell-based, Klebsiella pneumoniae; conditions: KP1087; alone
Source text: as §2, §3

Measured: Carbapenem MIC alone

C[C@@H](O)[C@H]1C(=O)N2C(C(=O)O)=C(S[C@@H]3CN[C@H](C(=O)N(C)C)C3)[C@H](C)[C@H]12 [Meropenem, reference compound]
Y (MIC of 1 μg/mL to 10 μg/mL): [3] | [7] | [8] | [10] | [14] | [18] | [26] | [33] | [40]
Z (MIC of greater than 10 μg/mL): all other assays above
